The results in this text go back to patent US8592403B2, “Diazepine and diazocane compounds as MC4 agonists” (Pfizer Limited, priority 2008, dated 2013).

Data set [1] in a line: In vitro metabolism rate determination, human liver microsome (HLM) assay. The class given is in vitro ADME. The note with it: human, liver microsomes, read-out: HLM: Clint, app. An excerpt:
In Vitro Metabolism Rate Determination (Human Liver Microsome (HLM); Rat Liver Microsome (RLM) Assay)
Many drugs are metabolised by the cytochrome P450 mono-oxygenase system. This enzyme is found in high concentrations in the liver and is bound to the endoplasmic reticulum of the hepatocyte. The enzyme system can be obtained in semi-purified state by the preparation of the hepatic microsomal fractions. Determining a compound's in vitro half-life in such a system provides a useful indicator of metabolic stability.
Methodology for In Vitro Rate Determination Using Hepatic & Supermix Microsomes
The method outlined below is for a total incubation volume of 1.5 ml.
1. The following mixture is prepared in a test tube:
2. Defrost microsomes at room temperature and add sufficient microsomes to give a final concentration of 0.5 nmol cytochrome P450/ml of incubation e.g. for a 1.5 ml incubation, the volume of microsomes to be added is:
3. Add sufficient MilliQ water to give a total incubation volume of 1.425 ml.
6. Add substrate to the incubation. The substrate should be at an initial concentration of 1 μM. The volume of substrate required in the remaining 1.162.5 ml incubation is calculated as follows: […]
8. Pre-incubate the tube containing the incubation mix, also positive control and no cofactor tubes in the thermostatically controlled shaking water bath set at 37° C. for approx 5 min.
9. Add NADP to initiate reaction (75 μl to each 1.162.5 ml incubation mix, 12.5 μl to positive control tube and 5 μl to no substrate tube) and take first time point immediately. The PNA positive control, no cofactor control and no substrate tubes are incubated for the total incubation time.
10. Remove 100 μl aliquots up to 9 different sampling points from 0 to 60 min (usually 0, 3, 5, 10, 15, 20, 30, 45 & 60 min) and terminate reaction. Longer incubation times can be used, but, after 120 min the microsomes deteriorate. The reaction may be terminated by addition of organic solvent, acid or base. At the end of the incubation process the no cofactor and no substrate controls in a similar manner i.e. terminate with the same reagent.
11. Analyse samples (including no cofactor and no substrate control) by a specific assay for the substrate to determine the disappearance kinetics.
Data obtained using the procedure described above can be quantified in terms of the substrates in vitro intrinsic clearance (Clint). Providing that the substrate concentration is below Km, the metabolism should be 1st order giving a log-linear plot of substrate disappearance with time.
The gradient of this line is the first order rate constant (k) for the substrate disappearance and is determined by regression analysis. This rate constant can be converted to the half-life according to the following equation.
Alternatively the rate constant can be converted to an intrinsic clearance (Clint) according to the following equation:— Clint(μl/min/mg)=(k/protein concentration in incubation (mg/ml))*1000

Data set [2] deals with T1, CYP3A4 (Homo sapiens, UniProt P08684).
T1 construct: utilizes human liver microsomes together with isoform-specific clinical drug probes; from tissue; host or cells: human liver microsomes
T1 sequence (P08684 whole entry, canonical isoform): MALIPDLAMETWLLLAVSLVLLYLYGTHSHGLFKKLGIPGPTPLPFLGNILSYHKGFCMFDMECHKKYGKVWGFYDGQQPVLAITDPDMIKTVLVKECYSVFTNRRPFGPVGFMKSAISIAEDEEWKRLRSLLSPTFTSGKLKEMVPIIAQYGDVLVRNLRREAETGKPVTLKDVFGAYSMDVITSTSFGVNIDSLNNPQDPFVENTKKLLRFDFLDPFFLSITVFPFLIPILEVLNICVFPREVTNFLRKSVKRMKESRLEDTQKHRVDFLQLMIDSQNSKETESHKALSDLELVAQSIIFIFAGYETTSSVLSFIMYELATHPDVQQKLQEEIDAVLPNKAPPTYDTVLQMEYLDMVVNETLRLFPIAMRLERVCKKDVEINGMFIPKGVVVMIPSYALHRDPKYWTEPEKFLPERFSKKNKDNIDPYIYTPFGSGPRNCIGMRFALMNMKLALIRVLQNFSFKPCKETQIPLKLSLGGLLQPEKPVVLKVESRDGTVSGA
Nature of the data set: High density DDI 3 μM cocktail screen in human liver microsomes, midazolam probe. The data set is classed as in vitro ADME. The note with it: human, liver microsomes, probe midazolam, read-out: % inhibition 3A4 @ 3 μM. How it is done: High Density Drug-Drug Interactions (DDI) 3 μM Cocktail Screen
A drug interaction is a situation in which a substance affects the activity of another drug, i.e. the effects are increased or decreased, or together they produce a new effect that neither produces on its own. Drug interactions may be the result of various processes but a relatively common one is where one drug affects the pharmacokinetics of another by inhibiting the cytochrome P450 that metabolises it. Because of the importance of these phenomena, assessment of the DDI potential for new chemical entities (NCEs) is considered important early on in the drug discovery process.
The DDI cocktail screen in human liver microsomes (HLM) is run in a fully automated fashion and the aim of the screen is to provide a single-point assessment of the DDI potential of new chemical entity (NCE; tested at […]) against the 4 primary cytochrome P450 enzymes, 1A2, 2D6, 2C9 and 3A4.
The substrate cocktail approach for P450 DDI utilizes human liver microsomes together with isoform-specific clinical drug probes and permits the simultaneous measurement of the inhibition of P450 1A2, 2C9, 2D6 & 3A4 activities in a single incubation. This is run in high throughput with simultaneous detection of metabolites by LC-MS/MS. This method has been thoroughly tested and evaluated using standard compounds.
Appearance of the metabolite of each substrate is measured over time in the presence and absence of the NCE (test compound/inhibitor) at a concentration of 3 μM. The compounds are assessed for their inhibitory potential as a percentage value and interpreted using the following scheme.

For data set [3], the target named is T2, MC3 receptor (MC3R) (Homo sapiens, UniProt P41968).
T2 construct: expressed in transfected cells; host or cells: CHO-CRE MC3R cells (membranes)
T2 sequence (P41968 whole entry): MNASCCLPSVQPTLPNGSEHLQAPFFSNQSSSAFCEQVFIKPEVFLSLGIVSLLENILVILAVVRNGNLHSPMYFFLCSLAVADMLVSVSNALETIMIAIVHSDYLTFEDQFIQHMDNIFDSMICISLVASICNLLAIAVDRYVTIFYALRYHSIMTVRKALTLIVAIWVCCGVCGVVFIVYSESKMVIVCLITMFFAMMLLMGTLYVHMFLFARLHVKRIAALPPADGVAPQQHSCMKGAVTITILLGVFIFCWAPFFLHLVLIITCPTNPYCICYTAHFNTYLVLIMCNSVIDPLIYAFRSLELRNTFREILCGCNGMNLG
Kind of data set: Nle4, D-Phe7-α-MSH inhibition at the MC3 receptor (competition binding, SPA, CHO-CRE MC3R membranes). An excerpt:
Nle4, D-Phe7-α-MSH Inhibition at the MC3 Receptor
Nle4, D-Phe7-α-MSH is a stable analogue of melanocyte-stimulating hormone (MSH), which is an agonist at the MC3 receptor (MC3R). Compounds can be evaluated for their ability to inhibit Nle4, D-Phe7-α-MSH binding to membranes from cells expressing the MC3R using a competition binding assay versus [^125I] Nle4, D-Phe7-α-MSH.
Cells expressing the MC3R were subject to homogenisation and the membrane fragment isolated by differential centrifugation. CHO-CRE MC3R cell membranes were coupled to PVT-PEI-WGA SPA Beads type A for 2 hours, spun at 1000 RPM for 5 mins and suspended to a final assay concentration of 800 ug bead/ml (1.2 ug membrane, 40 ug bead per well). Bead/membrane mix was incubated with 0.06 nM [^125I] Nle4, D-Phe7-α-MSH and 11 half-log concentrations of competitor ligand, in duplicate, in a total volume of 50 μl buffer per well (25 mM HEPES, 1 mM MgCl2, 2.5 mM CaCl2, 1% Pluronic F68, 1 complete EDTA protease inhibitor tablet/50 ml pH7). Non-specific binding was determined by the inclusion of 100 nM SHU9119. The reaction was initiated by the addition of bead/membranes and plates were incubated at room temperature for 12 hours (the first hour on a plate shaker), after which the amount of radioactivity present was determined using a Wallac plate counter. Ki values were determined by data analysis using appropriate software.

Data set [4] deals with MC4 receptor (Homo sapiens, UniProt P32245). Nature of the data set: MC4 EC50 functional potency (protocol E of US2005/0176772 / WO 2005/077935). The class given is cell-based. How it is done:
The compounds of formula (I) of the present invention have utility as MCR4 agonists in the treatment of various disease states.
MC5 and MC4 EC50 activity was determined as described by assay protocols D and E, respectively, in US2005/0176772 (pages 28-30).

pEC50, pKi: −log10 of the molar value.

Chain of MC4 receptor (P32245 whole entry): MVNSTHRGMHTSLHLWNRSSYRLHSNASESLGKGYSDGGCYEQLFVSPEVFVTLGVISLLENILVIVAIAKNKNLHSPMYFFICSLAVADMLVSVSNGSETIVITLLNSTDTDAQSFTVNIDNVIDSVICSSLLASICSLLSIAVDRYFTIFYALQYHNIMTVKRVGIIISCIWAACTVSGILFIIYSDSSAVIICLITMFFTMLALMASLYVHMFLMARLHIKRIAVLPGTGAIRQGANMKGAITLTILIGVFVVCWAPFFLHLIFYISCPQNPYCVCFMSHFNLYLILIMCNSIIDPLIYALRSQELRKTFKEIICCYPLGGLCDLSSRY

Take `COc1ccc([C@@H]2CN(c3cccnn3)C[C@H]2C(=O)N2CCC(c3ccc(Cl)cc3)N(C(C)=O)CC2)c(F)c1` (mixture of isomers) [Example 93]: the microsomal CLint at 1 μM in data set [1] was found to be 29.3 µL/min/mg. For the same compound, in data set [2], the inhibition at 3 µM amounted to 18.9%. The compound further gave a pKi in data set [3] of 5.31. In data set [4], this compound had a pEC50 of 7.84.
For the compound `COC(=O)N1CCN(C(=O)[C@@H]2CN(c3ccc(C#N)nn3)C[C@H]2c2ccc(F)cc2F)CCC[C@H]1c1ccc(Cl)cc1` [Example 55], the microsomal CLint at 1 μM in data set [1] came out at 9.75 µL/min/mg. Besides, the inhibition at 3 µM in data set [2] was found to be 70.6%. In data set [3], the pKi was 6.81. The pEC50 in data set [4] is 8.29.
For the compound `COC(=O)N1CCN(C(=O)[C@@H]2CN(c3cccnn3)C[C@H]2c2ccc(OC)cc2F)CCC1c1ccc(Cl)cc1` (mixture of isomers) [Example 95], the microsomal CLint at 1 μM in data set [1] amounted to 41.7 µL/min/mg. For the same compound, the inhibition at 3 µM in data set [2] was determined as 41.9%. In data set [3], this compound gave a pKi of 5.39. Moreover, the pEC50 in data set [4] was 8.09.
As for `CC(C)(C)N1C[C@@H](C(=O)N2CCC[C@@H](c3ccc(Cl)cc3)N(C(=O)N3CCOCC3)CC2)[C@H](c2ccc(F)cc2F)C1` [Example 46], the microsomal CLint at 1 μM in data set [1] was 71.1 µL/min/mg. Moreover, the inhibition at 3 µM in data set [2] was 27.3%. In data set [4], this compound had a negative logarithm of the EC50 (pEC50) of 7.71.
The like results for `CCC(=O)N1CCN(C(=O)[C@@H]2CN(C(C)(C)C)C[C@H]2c2ccc(Cl)cn2)CCC[C@H]1c1ccc(Cl)cc1` [Example 19] were, in that order, 62.6 µL/min/mg, 41% and 7.19.
As for `COc1ccc([C@@H]2CN(c3ccc(=O)n(C)n3)C[C@H]2C(=O)N2CCC[C@@H](c3ccc(Cl)cc3)N(C(=O)CC(F)(F)F)CC2)c(F)c1` [Example 30, 6-[(3S,4R)-3-{[5S-(4-chlorophenyl)-4-(3,3,3-trifluoropropanoyl)-1,4-diazocan-1-yl]carbonyl}-4-(2-fluoro-4-methoxyphenyl)pyrrolidin-1-yl]-2-methylpyridazin-3(2H)-one], the microsomal CLint at 1 μM in data set [1] was 18.2 µL/min/mg. The inhibition at 3 µM in data set [2] came to 36.8%. The compound further gave a pEC50 in data set [4] of 8.22.
As for `COc1ccc([C@@H]2CN(c3ccc(C#N)nn3)C[C@H]2C(=O)N2CCC[C@@H](c3ccc(Cl)cc3)N(C(=O)C3CC3)CC2)c(F)c1` [Example 23], the microsomal CLint at 1 μM in data set [1] came to 29.1 µL/min/mg. Besides, the inhibition at 3 µM in data set [2] was 56.2%. The compound further gave a pEC50 in data set [4] of 8.37.
The like results for `Cn1nc(N2C[C@@H](C(=O)N3CCC[C@@H](c4ccc(Cl)cc4)N(C(=O)C4CC4)CC3)[C@H](c3ccc(F)cc3F)C2)ccc1=O` [Example 34] were, in that order, 30.9 µL/min/mg, 69.2% and 8.41.
The like results for `CCN(CC)C(=O)N1CCN(C(=O)[C@@H]2CN(C(C)(C)C)C[C@H]2c2ccc(F)cc2F)CCC[C@H]1c1ccc(Cl)cc1` [Example 44, 4-{[(3S,4R)-1-tert-butyl-4-(2,4-difluorophenyl)pyrrolidin-3-yl]carbonyl}-8S-(4-chlorophenyl)-N,N-diethyl-1,4-diazocane-1-carboxamide] were, in that order, 173 µL/min/mg, 54.5% and 8.25.
As to `CC(C)(C)N1C[C@@H](C(=O)N2CCC[C@@H](c3ccc(Cl)cc3)N(C(=O)CC3CC3)CC2)[C@H](c2ccc(F)cc2F)C1` [Example 65], the microsomal CLint at 1 μM in data set [1] is 23.1 µL/min/mg. This compound also had a negative-log Ki (pKi) in data set [3] of 5.16. This compound also showed a negative-log EC50 (pEC50) in data set [4] of 7.78.
With `COc1ccc([C@@H]2CN(c3ccc(=O)n(C)n3)C[C@H]2C(=O)N2CCC[C@@H](c3ccc(Cl)cc3)N(C(C)=O)CC2)c(F)c1` [Example 27], in data set [1], the microsomal CLint at 1 μM came to 20.4 µL/min/mg. The inhibition at 3 µM in data set [2] worked out at 25.7%. The pEC50 in data set [4] was 8.30.
In the case of `CC(C)(C)N1C[C@@H](C(=O)N2CCC[C@@H](c3ccc(Cl)cc3)N(C(=O)C3CC3)CC2)[C@H](c2ccc(F)cc2F)C1` [Example 7], the microsomal CLint at 1 μM in data set [1] was determined as 26.2 µL/min/mg. This compound also gave a pKi in data set [3] of 5.00. The negative logarithm of the EC50 (pEC50) in data set [4] is 7.92.
Take `COC(=O)N1CCN(C(=O)[C@@H]2CN(c3ccc4nncn4n3)C[C@H]2c2ccc(Cl)cn2)CCC[C@@H]1c1ccc(Cl)cc1` [Example 51]: the inhibition at 3 µM in data set [2] came to 75.2%. This compound had a pKi in data set [3] of 6.67. Besides, the pEC50 in data set [4] was 8.48.
As for `CC(C)(C)N1C[C@@H](C(=O)N2CCC[C@@H](c3ccc(Cl)cc3)N(C(=O)C3CCOCC3)CC2)[C@H](c2ccc(F)cc2F)C1` [Example 59, 1-{[(3S,4R)-1-tert-butyl-4-(2,4-difluorophenyl)pyrrolidin-3-yl]carbonyl}-5S-(4-chlorophenyl)-4-(tetrahydro-2H-pyran-4-ylcarbonyl)-1,4-diazocane], in data set [1], the microsomal CLint at 1 μM stood at 55.4 µL/min/mg. Also, the inhibition at 3 µM in data set [2] was determined as 38.4%. The negative-log EC50 (pEC50) in data set [4] was 7.60.
Consider `CCC(=O)N1CCN(C(=O)[C@@H]2CN(c3ccc(=O)n(C)n3)C[C@H]2c2ccc(OC)cc2F)CCC[C@H]1c1ccc(Cl)cc1` [Example 28], for which the microsomal CLint at 1 μM in data set [1] was determined as 21.5 µL/min/mg. Also, in data set [2], the inhibition at 3 µM is 40.8%. The compound also had a pEC50 in data set [4] of 8.47.
Regarding `CC(C)OC(=O)N1CCN(C(=O)[C@@H]2CN(C(C)(C)C)C[C@H]2c2ccc(F)cc2F)CCC[C@H]1c1ccc(Cl)cc1` [Example 53], the microsomal CLint at 1 μM in data set [1] is 27.7 µL/min/mg. Also, in data set [2], the inhibition at 3 µM was 58.5%. In data set [4], this compound gave a pEC50 of 7.83.
Consider `CC(C)(C)N1C[C@@H](C(=O)N2CCC[C@@H](c3ccc(Cl)cc3)N(C(=O)C3CC(F)(F)C3)CC2)[C@H](c2ccc(F)cc2F)C1` [Example 61], for which the microsomal CLint at 1 μM in data set [1] was determined as 13.9 µL/min/mg. In addition, in data set [2], the inhibition at 3 µM is 40%. The same compound gave a pEC50 in data set [4] of 7.60.
The like results for `COC(=O)N1CCN(C(=O)[C@@H]2CN(c3ccc4nncn4n3)C[C@H]2c2ccc(F)cc2F)CCC[C@H]1c1ccc(Cl)cc1` [Example 96] were, in that order, 31.3 µL/min/mg, 76.9% and 9.07.
